The values below come from PMC9207808 (ACS Chemical Biology, 2022).

SMILES strings stand for the structures. Residues, ends and D or L forms follow the SMILES beside them.

Assay [1] concerns DocSTm. In words: Differential scanning fluorimetry (thermal stabilisation of Doc). Format: binding, S. Typhimurium. The settings on record: for melting temperature shift ΔTm: DSF, DocSTm 5 μM, analyte 50 μM, Tm with analyte minus Tm of free DocSTm (42.9 ± 0.9 °C), SYPRO Orange, 20 mM K2HPO4, 50 mM (NH4)2SO4, pH 8.0, triplicate; for Average Tm / Tm: DocSTm 5 µM + 50 µM binder; for Average Tm: average of 3 replicates. The protocol: Experiments were performed in a Mx3005P qPCR System (Agilent) collecting fluorescence data with a temperature ramp of 25 to 95 °C. Samples were prepared in a buffer containing 20 mM K2HPO4 and 50 mM (NH4)2SO4 at pH 8.0. The SYPRO Orange dye (Sigma-Aldrich, 5000× stock in DMSO) was used to monitor protein denaturation and was diluted to a final concentration of 3×. For binding experiments, the final concentration of Doc was 5 μM. Each condition was performed in triplicate (ESI section 4) and the melting curves were plotted using GraphPad Prism 5 (GraphPad Software, U.S.A.). The melting temperatures were obtained by fitting the sigmoidal section of the curves to a Boltzmann sigmoid function.

The target of assay [2] is DocSTm. In words: Surface plasmon resonance binding to immobilised Doc. Also on record: species or system S. Typhimurium. The settings on record: for koff × 10^-6 / kon × 10^6: 1:1 kinetic fit, mean ± SD of at least 3 replicates; for kon × 10^6: single-cycle kinetics (multicycle for PhdSTm1-73); for Half-life of the complex: t1/2 = ln2 / koff. How it is done: Experiments were performed in a Biacore S200 (Cytiva) with a Series S sensor chip NTA (Cytiva). The data was analyzed using the Biacore Evaluation Software (Cytiva) and curves were plotted using GraphPad Prism 5 (GraphPad Software, U.S.A.). All experiments were performed at 22 °C with a running buffer containing 10 mM HEPES, 500 mM NaCl, 50 μM EDTA, and 0.005% (v/v) TWEEN 20 at pH 8.0. The surface was conditioned following the standard manufacturer’s guidelines and protein immobilization was performed with a 30–60 s pulse (flow rate of 5 μL/min) of Doc (150 nM) in running buffer. […] Surface regeneration was performed with a 1 min pulse of 0.5 M imidazole followed by a 1 min pulse of 0.35 M of EDTA at pH 8.0.
Binding to Doc was performed using a multicycle kinetics (MCK) setup for peptides 7, 10, and 14, while the remaining samples were tested using a single-cycle kinetics (SCK) setup. The surface was fully regenerated in between each analyte in both cases. In the MCK experiments, increasing concentrations of each analyte were injected with an 80 s pulse (30 μL/min) and dissociation times varied depending on the time required to fully dissociate the complex. The double-referenced sensorgrams (raw data subtracted from a blank injection and reference surface responses) were analyzed using a kinetic and/or a steady-state 1:1 binding model. In the SCK experiments, typically six concentrations of each analyte were sequentially injected with 80 s pulses (30 μL/min), and dissociation times varied depending on the time required to dissociate at least 5% of the complex. The double-referenced sensorgrams were fitted using a kinetic 1:1 binding model.
At least three independent replicates were measured for each analyte (ESI section 5). When a steady-state fit was applied, the reported Kd and its uncertainty correspond, respectively, to the average and standard deviations of the Kd obtained in each measurement. When a kinetic fit was applied, the reported rate constants (kon and koff) and their uncertainties correspond, respectively, to the average and standard deviations of the rate constants obtained in each measurement. In this case, reported Kd were calculated using the equation below, and the standard deviation of the rate constants was propagated. [drawing 1]

[3] abbreviates: SPR, kinetic fit, KD calculated from mean koff and kon, SD propagated, 22 °C, pH 8.0.

Take `CC[C@H](C)[C@H](NC(=O)[C@H](C)NC(=O)[C@H](C)NC(=O)[C@H](Cc1ccccc1)NC(=O)[C@H](CCC(=O)O)NC(=O)[C@H](CC(=O)O)NC(=O)[C@H](CC(=O)O)NC(=O)[C@H](C)NC(=O)[C@H](Cc1c[nH]c2ccccc12)NC(C)=O)C(=O)N[C@@H](CCSC)C(=O)N[C@@H](C)C(=O)N[C@H](C(=O)N[C@@H](Cc1c[nH]cn1)C(=O)NCC(=O)N[C@@H](CC(N)=O)C(=O)N[C@@H](CCC(=O)O)C(=O)N[C@@H](CC(C)C)C(=O)N[C@@H](CCCNC(=N)N)C(=O)N[C@@H](CCC(=O)O)C(=O)N[C@@H](CC(C)C)C(=O)N[C@@H](C)C(=O)N[C@@H](CC(=O)O)C(=O)N[C@@H](CCCCN)C(=O)O)C(C)C` [peptide 2] (Ac-WADDEFAAIMAVHGNELRELADK-OH; C-terminus assumed): the “melting temperature shift ΔTm” value in the assay with DocSTm [1] worked out at 28.0 ± 1.0 °C. In addition, in the assay with DocSTm [1], the “Average Tm” value was found to be 70.9 ± 0.4 °C. The figures for the Tm with DocSTm [1] (replicate 1), in the assay on DocSTm [1] (replicate 2) and with DocSTm [1] (replicate 3) were 71.3 °C, 70.8 °C and 70.6 °C, respectively. The Kd is 0.0523 nM on DocSTm [2] (SPR kinetic fit, replicate 1); 0.0478 nM on DocSTm [2] (SPR kinetic fit, replicate 2); 0.0551 nM on DocSTm [2] (SPR kinetic fit, replicate 3); 0.052 ± 0.012 nM at DocSTm [2] (setting [3]). Moreover, the “koff × 10^-6” value with DocSTm [2] (SPR, 22 °C, pH 8.0) is reported as 59 ± 11 ×10^-6 s-1. For the same compound, the “kon × 10^6” value in the assay on DocSTm [2] (SPR, 22 °C, pH 8.0) is on record as 1.136 ± 0.140 ×10^6 M-1 s-1. Also, in the assay with DocSTm [2], the “Half-life of the complex” value stood at 3.3 ± 0.6 h.
With `CC[C@H](C)[C@H](NC(=O)[C@H](C)NC(=O)[C@H](C)NC(=O)[C@H](Cc1ccccc1)NC(=O)[C@H](C)NC(=O)[C@H](CC(=O)O)NC(=O)[C@H](CC(=O)O)NC(=O)[C@H](CCSC)NC(=O)[C@H](Cc1c[nH]c2ccccc12)NC(C)=O)C(=O)N[C@@H](CCSC)C(=O)N[C@@H](C)C(=O)N[C@H](C(=O)N[C@@H](Cc1c[nH]cn1)C(=O)NCC(=O)N[C@@H](CC(N)=O)C(=O)N[C@@H](CCC(=O)O)C(=O)N[C@@H](CC(C)C)C(=O)N[C@@H](CCCNC(=N)N)C(=O)N[C@@H](CCC(=O)O)C(=O)N[C@@H](CC(C)C)C(=O)N[C@@H](C)C(=O)N[C@@H](CC(=O)O)C(=O)N[C@@H](CCCCN)C(=O)O)C(C)C` [peptide 5] (Ac-WMDDAFAAIMAVHGNELRELADK-OH; C-terminus assumed), the “melting temperature shift ΔTm” value with DocSTm [1] is 23.4 ± 0.9 °C. For the same compound, in the assay with DocSTm [1], the “Average Tm” value was 66.3 ± 0.1 °C. Besides, the Tm with DocSTm [1] (replicate 1) turned out to be 66.3 °C; with DocSTm [1] (replicate 2), 66.3 °C; in the assay with DocSTm [1] (replicate 3), 66.2 °C. The Kd at DocSTm [2] (SPR kinetic fit, replicate 1) was 0.0489 nM; at DocSTm [2] (SPR kinetic fit, replicate 2), 0.0513 nM; on DocSTm [2] (SPR kinetic fit, replicate 3), 0.0469 nM; at DocSTm [2] (setting [3]), 0.049 ± 0.006 nM. Moreover, the “koff × 10^-6” value with DocSTm [2] (SPR, 22 °C, pH 8.0) is listed as 75 ± 5 ×10^-6 s-1. In addition, the “kon × 10^6” value with DocSTm [2] (SPR, 22 °C, pH 8.0) is 1.542 ± 0.147 ×10^6 M-1 s-1. In addition, in the assay with DocSTm [2], the “Half-life of the complex” value turned out to be 2.6 ± 0.2 h.
As to `CC[C@H](C)[C@H](NC(=O)[C@H](C)NC(=O)[C@H](C)NC(=O)[C@H](Cc1ccccc1)NC(=O)[C@H](CCC(=O)O)NC(=O)[C@H](CC(=O)O)NC(=O)[C@H](CC(=O)O)NC(=O)[C@H](CCSC)NC(=O)[C@H](Cc1c[nH]c2ccccc12)NC(C)=O)C(=O)N[C@@H](CCSC)C(=O)N[C@@H](C)C(=O)N[C@@H](C)C(=O)N[C@@H](Cc1c[nH]cn1)C(=O)NCC(=O)N[C@@H](CC(N)=O)C(=O)N[C@@H](CCC(=O)O)C(=O)N[C@@H](CC(C)C)C(=O)N[C@@H](CCCNC(=N)N)C(=O)N[C@@H](CCC(=O)O)C(=O)N[C@@H](CC(C)C)C(=O)N[C@@H](C)C(=O)N[C@@H](CC(=O)O)C(=O)N[C@@H](CCCCN)C(=O)O` [peptide 9] (Ac-WMDDEFAAIMAAHGNELRELADK-OH; C-terminus assumed), the “melting temperature shift ΔTm” value in the assay on DocSTm [1] stood at 24.6 ± 1.2 °C. Besides, the “Average Tm” value with DocSTm [1] came out at 67.5 ± 0.7 °C. In addition, the figures for the Tm in the assay on DocSTm [1] (replicate 1), in the assay with DocSTm [1] (replicate 2) and in the assay on DocSTm [1] (replicate 3) were 68.3 °C, 67.4 °C and 66.9 °C, respectively. Also, the Kd was 0.183 nM at DocSTm [2] (SPR kinetic fit, replicate 1); 0.239 nM at DocSTm [2] (SPR kinetic fit, replicate 2); 0.132 nM on DocSTm [2] (SPR kinetic fit, replicate 3); 0.171 ± 0.076 nM at DocSTm [2] (setting [3]). The “koff × 10^-6” value in the assay with DocSTm [2] (SPR, 22 °C, pH 8.0) is reported as 388 ± 57 ×10^-6 s-1. For the same compound, the “kon × 10^6” value with DocSTm [2] (SPR, 22 °C, pH 8.0) is on record as 2.266 ± 0.942 ×10^6 M-1 s-1. Further, the “Half-life of the complex” value in the assay with DocSTm [2] is on record as 0.50 ± 0.07 h.
On to `CC[C@H](C)[C@H](NC(=O)[C@H](C)NC(=O)[C@H](C)NC(=O)[C@H](Cc1ccccc1)NC(=O)[C@H](CCC(=O)O)NC(=O)[C@H](CC(=O)O)NC(=O)[C@H](CC(=O)O)NC(=O)[C@H](CCSC)NC(=O)[C@H](Cc1c[nH]c2ccccc12)NC(C)=O)C(=O)N[C@@H](CCSC)C(=O)N[C@@H](C)C(=O)N[C@H](C(=O)N[C@@H](Cc1c[nH]cn1)C(=O)N[C@@H](C)C(=O)N[C@@H](CC(N)=O)C(=O)N[C@@H](CCC(=O)O)C(=O)N[C@@H](CC(C)C)C(=O)N[C@@H](CCCNC(=N)N)C(=O)N[C@@H](CCC(=O)O)C(=O)N[C@@H](CC(C)C)C(=O)N[C@@H](C)C(=O)N[C@@H](CC(=O)O)C(=O)N[C@@H](CCCCN)C(=O)O)C(C)C` [peptide 11] (Ac-WMDDEFAAIMAVHANELRELADK-OH; C-terminus assumed), for which, in the assay on DocSTm [1], the “Average Tm” value stood at 69.0 ± 0.2 °C. Also, the Tm came out at 68.8 °C in the assay with DocSTm [1] (replicate 1), 69.2 °C in the assay on DocSTm [1] (replicate 2) and 68.9 °C in the assay with DocSTm [1] (replicate 3). Moreover, the Kd at DocSTm [2] (SPR kinetic fit, replicate 1) was 0.13 nM; at DocSTm [2] (SPR kinetic fit, replicate 2) it was 0.0743 nM; at DocSTm [2] (SPR kinetic fit, replicate 3), 0.0769 nM; at DocSTm [2] (setting [3]) it was 0.084 ± 0.045 nM. In the assay with DocSTm [2] (SPR, 22 °C, pH 8.0), the “koff × 10^-6” value is recorded as 197 ± 49 ×10^-6 s-1. Moreover, the “kon × 10^6” value in the assay on DocSTm [2] (SPR, 22 °C, pH 8.0) is recorded as 2.350 ± 1.103 ×10^6 M-1 s-1. Further, in the assay on DocSTm [2], the “Half-life of the complex” value is 1.0 ± 0.2 h.
In the case of `CC[C@H](C)[C@H](NC(=O)[C@H](C)NC(=O)[C@H](C)NC(=O)[C@H](Cc1ccccc1)NC(=O)[C@H](CCC(=O)O)NC(=O)[C@H](CC(=O)O)NC(=O)[C@H](CC(=O)O)NC(=O)[C@H](CCSC)NC(=O)[C@H](Cc1c[nH]c2ccccc12)NC(C)=O)C(=O)N[C@@H](CCSC)C(=O)N[C@@H](C)C(=O)N[C@H](C(=O)N[C@@H](Cc1c[nH]cn1)C(=O)NCC(=O)N[C@@H](C)C(=O)N[C@@H](CCC(=O)O)C(=O)N[C@@H](CC(C)C)C(=O)N[C@@H](CCCNC(=N)N)C(=O)N[C@@H](CCC(=O)O)C(=O)N[C@@H](CC(C)C)C(=O)N[C@@H](C)C(=O)N[C@@H](CC(=O)O)C(=O)N[C@@H](CCCCN)C(=O)O)C(C)C` [peptide 12] (Ac-WMDDEFAAIMAVHGAELRELADK-OH; C-terminus assumed), the “melting temperature shift ΔTm” value in the assay on DocSTm [1] was determined as 28.2 ± 1.2 °C. Also, in the assay on DocSTm [1], the “Average Tm” value amounted to 71.1 ± 0.7 °C. The Tm in the assay with DocSTm [1] (replicate 1) is 71.8 °C; with DocSTm [1] (replicate 2) it was 71.0 °C; in the assay on DocSTm [1] (replicate 3) it was 70.4 °C. In addition, the Kd at DocSTm [2] (SPR kinetic fit, replicate 1) is 0.251 nM; at DocSTm [2] (SPR kinetic fit, replicate 2), 0.166 nM; on DocSTm [2] (SPR kinetic fit, replicate 3) it was 0.0853 nM; at DocSTm [2] (SPR kinetic fit, replicate 4), 0.0833 nM; at DocSTm [2] (setting [3]), 0.145 ± 0.076 nM. Besides, the “koff × 10^-6” value in the assay with DocSTm [2] (SPR, 22 °C, pH 8.0) is listed as 203 ± 103 ×10^-6 s-1. Moreover, in the assay on DocSTm [2] (SPR, 22 °C, pH 8.0), the “kon × 10^6” value is listed as 1.396 ± 0.154 ×10^6 M-1 s-1. In the assay with DocSTm [2], the “Half-life of the complex” value is on record as 1.0 ± 0.5 h.
